# Data published in patent publication US8440168B2, “Image-guided therapy of myocardial disease: composition, manufacturing and applications” (The Board of Regents of the University of Texas System, priority 2008, dated 2013).
# Legend:
# normal rat = experiment: SPECT/CT imaging of a normal rat; assay type: in vivo; details: 300 μCi, SPECT/CT at 45 min
# Protocol: (§1) To ascertain ^99mTc-EDA-ESM is a heart-specific agent, not tumor seeking agent, the inventors created a tumor model. Female Fischer 344 rats (125-175 g, n=5) were inoculated with breast cancer cells (13762NF, 10^6 cells/rat, s.c. in the hind leg). After 15-20 days and a tumor volume of […], the breast tumor-bearing rats were administered with 300 μCi of ^99mTc-EDA-ESM. Scintigraphic images, using a gamma camera equipped with low-energy, parallel-hole collimator, were obtained from 15 to 45 min. In separate studies, normal Female Fischer 344 rats ([…], n=5) were administered with 300 μCi of ^99mTc-EDA-ESM and scintigraphic images were obtained at 30-180 min. One rat was administered with 300 μCi of ^99mTc-EDA-ESM and SPECT/CT was performed at 45 min. […] In normal rats administered with ^99mTc-EDA-ESM (n=5), heart to muscle ([…]) count density uptake ratios were increased (2.7 to 5.1) at 30-180 min (FIG. 11).
# [1] = test system: breast tumor-bearing rats; experiment: Planar scintigraphic imaging in breast tumor-bearing rats; assay type: in vivo, Female Fischer 344 rats
# Protocol: as §1
# [2] = breast tumor-bearing rats (13762NF), 300 μCi, planar scintigraphy 15 to 45 min
structure (smiles),measurement,setting,value
"CC(C)NCC(O)COc1ccc(CCC(=O)[N]2CC[NH][Tc]23(=[O])[NH]CC[N]3C(=O)CCc2ccc(OCC(O)CNC(C)C)cc2)cc1 (centres unmarked) [^99mTc-EDA-ESM, ^99mTc-Ethylenediamine-esmolol]",heart uptake (SPECT/CT),normal rat,high heart uptake
same,heart uptake,[1]; [2],high uptake
same,tumor visualization,[1]; [2],could not be visualized well
same,cardiac region count/pixels ratio (line profile curve),"[1]; breast tumor-bearing rats, 300 μCi/rat, 15-45 minutes, compared to laterally located tissues",high cardiac region count/pixels ratio
same,Heart to muscle (H/M) count density uptake ratios,"[1]; tumor-bearing rats (n=4), 300 μCi IV, sacrificed at 2 hrs, compared with heart/other tissue ratios",higher than other tissues
